Results on 3 compounds are retold here after patent US7354917B2, “Oxabispidine compounds and their use in the treatment of cardiac arrhythmias” (AstraZeneca AB, priority 2004, dated 2008).

Structures can show the parent of a compound that is named as a salt.

The test deals with T1, HERG channel (Homo sapiens, UniProt Q12809).
T1 construct: expressed in transfected cells
T1 sequence (Q12809 whole entry): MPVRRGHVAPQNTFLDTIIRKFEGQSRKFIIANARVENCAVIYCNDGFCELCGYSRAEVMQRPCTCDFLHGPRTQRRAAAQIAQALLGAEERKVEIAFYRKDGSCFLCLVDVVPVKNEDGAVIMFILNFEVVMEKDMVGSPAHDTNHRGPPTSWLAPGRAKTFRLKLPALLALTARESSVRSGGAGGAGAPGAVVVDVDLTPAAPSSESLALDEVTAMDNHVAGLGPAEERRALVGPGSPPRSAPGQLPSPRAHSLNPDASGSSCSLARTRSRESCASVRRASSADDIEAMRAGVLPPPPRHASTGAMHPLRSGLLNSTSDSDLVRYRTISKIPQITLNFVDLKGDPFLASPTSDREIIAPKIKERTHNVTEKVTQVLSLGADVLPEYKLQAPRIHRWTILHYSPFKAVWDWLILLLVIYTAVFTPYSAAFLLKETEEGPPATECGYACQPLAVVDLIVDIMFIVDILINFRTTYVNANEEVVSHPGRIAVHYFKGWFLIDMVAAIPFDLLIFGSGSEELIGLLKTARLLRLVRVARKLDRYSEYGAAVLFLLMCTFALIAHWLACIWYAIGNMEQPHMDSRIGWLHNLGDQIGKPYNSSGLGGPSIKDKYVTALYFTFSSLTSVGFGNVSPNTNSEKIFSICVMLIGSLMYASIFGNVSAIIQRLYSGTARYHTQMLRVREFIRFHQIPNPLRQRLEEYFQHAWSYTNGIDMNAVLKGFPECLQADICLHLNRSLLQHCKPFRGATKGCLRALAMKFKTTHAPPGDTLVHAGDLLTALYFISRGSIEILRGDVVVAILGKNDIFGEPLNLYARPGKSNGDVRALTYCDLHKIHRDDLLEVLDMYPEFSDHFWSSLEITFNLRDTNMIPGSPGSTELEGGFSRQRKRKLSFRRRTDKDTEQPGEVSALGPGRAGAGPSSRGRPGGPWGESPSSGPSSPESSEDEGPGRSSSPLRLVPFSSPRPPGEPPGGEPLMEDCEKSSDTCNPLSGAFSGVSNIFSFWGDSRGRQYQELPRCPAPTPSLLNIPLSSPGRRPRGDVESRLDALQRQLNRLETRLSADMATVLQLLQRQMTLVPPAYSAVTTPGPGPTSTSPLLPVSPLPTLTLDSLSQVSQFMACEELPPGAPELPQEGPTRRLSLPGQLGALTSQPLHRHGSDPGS
The test is described as follows: Test B: Rb+-efflux assay for detection of HERG channel blockers. The class given is cell-based. The settings on record: depolarisation-induced Rb+-efflux from Chinese hamster ovary cells stably expressing the HERG-channel; read-out: pIC50 for HERG channel blockade (converted). Here is the method: Rb^+-Efflux Assay for Detection of HERG Channel Blockers
The human ether-a-go-go related gene (HERG) encodes the voltage-gated K^+ channel underlying the cardiac rapid delayed rectifier current IKr. The IC50 value for HERG channel blockade was determined using a high throughput functional assay based on depolarisation-induced Rb^+-efflux from Chinese hamster ovary cells stably expressing the HERG-channel.
Cells were grown in Ham F12 (Life Technologies 31765-027) supplemented with 10% FBS and 0.6 mg/mL hygromycin B and were routinely passaged twice-weekly. For experimental studies, cells were plated at a density of 15,000 cells/well in Falcon, 384-well tissue culture-treated black-walled clear-bottomed plates and were thereafter incubated overnight at 37° C. in a cell culture incubator.
Following incubating overnight, cell plates were washed and a Rb^+-Load buffer (a physiological buffer containing Rb^+) was added. Cell plates were then incubated for 3 hours and were thereafter washed. Following this wash, the test compounds were added. The cell plates were then incubated for another 10 minutes and, following this incubation period, external K^+ concentration was increased in order to depolarize the cells and activate HERG channels. After a ten minute exposure period to the increased K^+ concentration, supernatants were transferred to new microplates for subsequent determination of Rb^+ content, using Atomic Absorption Spectrometry analysis.
The basal Rb^+ efflux (content of Rb^+ (mg/L) in supernatants of wells receiving only wash buffer) was defined as 100% inhibition and the stimulated Rb^+efflux (content of Rb^+ (mg/L) in supernatants of wells exposed only to increased external potassium concentration) was defined as 0% inhibition.
Compound activity was expressed as: […]
A: Rb^+ content in wells receiving test compound+increased external K^+.
C: Stimulated Rb^+ efflux.
`CS(=O)(=O)N(CCOc1ccc(C#N)cc1)CCN1CC2CN(Cc3ccc(F)cc3)CC(C1)O2` [Example 3, N-[2-(4-Cyanophenoxy)ethyl]-N-{2-[7-(4-fluorobenzyl)-9-oxa-3,7-diaza-bicyclo[3.3.1]non-3-yl]ethyl}methanesulfonamide]: the IC50 was 1580 nM.
The same measure for `CS(=O)(=O)N(CCOc1ccc(C#N)cc1)CCN1CC2CN(Cc3ccccc3)CC(C1)O2` [Example 2, N-[2-(7-Benzyl-9-oxa-3,7-diazabicyclo[3.3.1]non-3-yl)ethyl]-N-[2-(4-cyanophenoxy)ethyl]methanesulfonamide, tartaric acid salt]: 2820 nM; for `CN(C)C(=O)N(CCOc1ccc(C#N)cc1)CCN1CC2CN(Cc3ccc(OC(F)F)cc3)CC(C1)O2` [9 (xlvi), N-[2-(4-cyanophenoxy)ethyl]-N-(2-{7-[4-(difluoromethoxy)-benzyl]-9-oxa-3,7-diazabicyclo[3.3.1]non-3-yl}ethyl)-N′,N′-dimethylurea]: 4170 nM.
